In one experiment the target is T1, PAR1 (Homo sapiens, UniProt P25116).
T1 sequence (P25116 22-425): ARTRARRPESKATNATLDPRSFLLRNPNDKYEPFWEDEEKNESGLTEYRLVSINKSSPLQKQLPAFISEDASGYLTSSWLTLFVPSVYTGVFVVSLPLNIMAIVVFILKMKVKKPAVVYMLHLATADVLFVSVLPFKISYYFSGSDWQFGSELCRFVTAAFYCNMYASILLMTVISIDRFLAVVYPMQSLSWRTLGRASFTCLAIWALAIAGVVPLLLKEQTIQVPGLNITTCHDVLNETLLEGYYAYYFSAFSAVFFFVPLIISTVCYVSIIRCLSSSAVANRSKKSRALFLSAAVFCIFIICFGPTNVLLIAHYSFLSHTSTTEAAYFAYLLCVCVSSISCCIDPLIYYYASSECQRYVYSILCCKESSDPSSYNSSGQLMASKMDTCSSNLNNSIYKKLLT
Put plainly: PAR1 binding test (radioligand displacement, membrane preparation). The settings on record: human PAR1 receptor expressed in High Five insect cells, membrane 1 mg/ml, radioligand 20 nM, 60 minutes; read-out: Inhibition of binding IC50. Set-up: expressed in transfected cells; host or cells: High Five insect cells (transient expression), membrane preparation. Here is the method: The synthesized substances were examined in a PAR1 binding test. This tested whether the substances can inhibit the binding of a radioactively labeled PAR1 agonist known from the literature at the PAR1 receptor (Ho-Sam Ahn, Mol Pharm, 51:350-356, 1997).
The human PAR1 receptor was expressed transiently in High Five insect cells. From these cells, after 48 hours, a membrane preparation was produced by standard methods, aliquoted into 10 mM Tris-HCl; 0.3 mM EDTA; 1 mM EGTA; 250 mM sucrose pH 7.5, and stored at −80° C.
The substances were preincubated with the membrane at RT for 15 minutes, then the radioligand (ALA-(para-F-Phe)-Arg-ChA-homoArg-(3,4-^3H-Tyr)-NH2; approx. 40 Ci/mMol) was added. The end concentration of the radioligand in the test buffer (50 mM Tris-HCl; 10 mM MgCl2; 1 mM EGTA; 0.1% BSA; 2% DMSO) was 20 nM, that of the membrane 1 mg/ml. After an incubation time of 60 minutes, 25 μl of the mixture were transferred to a 96-well MultiScreenHTS FB microtiter filtration plate (from Millipore), which had been pretreated beforehand with a 0.75% aqueous polyethyleneimine solution for 5 hours at RT. Thereafter, with vacuum extraction, each well was washed four times with 300 μl of buffer (50 mM Tris-HCl; 10 mM MgCl2; 1 mM EGTA). The plate was then dried overnight, 100 μl of scintillator per well were added, and the plate was analyzed after 6 hours in a Wallac MicroBeta (from PerkinElmer) liquid scintillation counter. The nonspecific binding was determined in the presence of 100 μM SCH79797 (PAR-1 antagonist; from Tocris, Cat. No. 1592) and subtracted from all measurements. The 100% value used was a control without inhibitor. The % inhibition values of a substance dilution series were used to calculate the IC50 with the aid of nonlinear regression analysis according to the 4-parameter equation.
A general note: Displacement assays read how much labelled ligand stays bound in the presence of the test substance.
With `CCOc1cc(C(=O)CN2Cc3cc(OCC)c(OCC)c(F)c3C2=N)cc(S(F)(F)(F)(F)F)c1` [Example 24, 2-(5,6-Diethoxy-7-fluoro-1-imino-1,3-dihydroisoindol-2-yl)-1-[3-ethoxy-5-(pentafluorosulfanyl)phenyl]ethanone], the IC50 (commonly the concentration at which inhibition is half-maximal) was 512 nM.

With `CCOc1cc2c(c(F)c1OCC)C(=N)N(CC(=O)c1cc(N3CCOCC3)cc(S(F)(F)(F)(F)F)c1)C2` [Example 30, 2-(5,6-Diethoxy-7-fluoro-1-imino-1,3-dihydroisoindol-2-yl)-1-[3-morpholin-4-yl-5-(pentafluorosulfanyl)phenyl]ethanone], the concentration for half-maximal inhibition (IC50) came to 225 nM.

With `CCOc1cc2c(c(F)c1OCC)C(=N)N(CC(=O)c1cc(NC(C)=O)cc(S(F)(F)(F)(F)F)c1)C2` [Example 14], the IC50 was determined as 227 nM. The same measure, in the same setting: as for `CCOc1cc2c(cc1C(=O)NC)C(=N)N(CC(=O)c1cc(NC(=O)C(F)(F)F)cc(S(F)(F)(F)(F)F)c1)C2` [Example 4, N-Methyl-6-ethoxy-3-imino-2-{2-[3-pentafluorosulfanyl-5-(2,2,2-trifluoroacetylamino)phenyl]-2-oxoethyl}-2,3-dihydro-1H-isoindole-5-carboxamide], the figure is 4800 nM; as for `CCOc1cc2c(c(F)c1OCC)C(=N)N(CC(=O)c1cc(Br)c(S(F)(F)(F)(F)F)cc1N)C2` [Example 20, 1-[2-Amino-5-bromo-4-(pentafluorosulfanyl)phenyl]-2-(5,6-diethoxy-7-fluoro-1-imino-1,3-dihydroisoindol-2-yl)ethanone], 128 nM; as for `CCOc1cc2c(c(F)c1OCC)C(=N)N(CC(=O)c1cc(NC(=O)CC(C)(C)C)cc(S(F)(F)(F)(F)F)c1)C2` [Example 17, N-{3-[2-(5,6-Diethoxy-7-fluoro-1-imino-1,3-dihydroisoindol-2-yl)acetyl]-5-pentafluorosulfanylphenyl}-3,3-dimethylbutyramide], 360 nM.

Regarding `CCOc1cc2c(c(F)c1OCC)C(=N)N(CC(=O)c1cc(Cl)cc(S(F)(F)(F)(F)F)c1)C2` [Example 27, 1-[3-Chloro-5-(pentafluorosulfanyl)phenyl]-2-(5,6-diethoxy-7-fluoro-1-imino-1,3-dihydroisoindol-2-yl)ethanone], the IC50 stood at 1700 nM.

The next experiment has as its target T1, PAR1. Put plainly: Inhibition of PAR1-mediated platelet aggregation induced by TRAP. In kind it is cell-based. Set-up: endogenous in cells; host or cells: washed human blood platelets from volunteer donors. The settings on record: washed platelets from healthy volunteer donors, TRAP (thrombin receptor-activating peptide) as agonist, 96-well format, AUC at 650 nm. Here is the method: Inhibition of PAR1-Mediated Platelet Aggregation
The biological testing of the substances took place in platelet aggregation induced by TRAP (thrombin receptor-activating peptide) in 96-well format. For this purpose, blood was taken from healthy volunteer donors in 20 ml syringes containing 2 ml of 3.13% sodium citrate solution. After centrifugation at 150×g for 20 minutes, the platelet-rich plasma (PRP) was separated off and admixed with 1 μl of PGE1 solution (500 μg/ml in ethanol)/ml of PRP. Incubation at RT for 5 minutes was followed by centrifugation at 120×g for 15 minutes to remove the leukocytes. The leukocyte-free PRP was transferred in 5 ml portions into 15 ml PP tubes and centrifuged at 360×g for 15 minutes in order to pellet the platelets. The plasma was then decanted off and the platelet sediment from 5 ml of PRP was resuspended in 1 ml of Tyrode's (120 mM NaCl, 2.6 mM KCl, 12 mM NaHCO3, 0.39 mM NaH2PO4×H2O, 10 mM HEPES, 0.35% BSA, 5.5 mM glucose, pH 7.4) and adjusted with Tyrode's to a platelet count of 3×10^5/microliter (μl). 13 ml of this cell suspension were then mixed with 866 μl of 10 mM CaCl2 solution, and 120 μl thereof were pipetted into each well of a 96-well plate containing 15 μl of the substance to be tested. After incubation at RT in the dark for 30 minutes, 15 μl of a TRAP solution (70-100 μM) were added as agonist, and kinetics were recorded at 650 nm in a SpectraMax 340 at 37° C. for 20 minutes while shaking. The areas under the curves of negative control (Tyrode's/DMSO) and positive control (15 μl of agonist/DMSO) were calculated and the difference was fixed as the 100% value. The substances to be tested were pipetted as serial dilutions in duplicate determination, the AUC was likewise determined for each substance concentration, and the % inhibition of the AUC compared with the control was calculated. On the basis of the % inhibition, the IC50 was calculated by nonlinear regression analysis according to the 4-parameter equation.
On to `CCOc1cc2c(cc1C(=O)NC)C(=N)N(CC(=O)c1cc(NC)cc(S(F)(F)(F)(F)F)c1)C2` [Example 3, N-Methyl-6-ethoxy-3-imino-2-[2-(3-methylamino-5-pentafluorosulfanylphenyl)-2-oxoethyl]-2,3-dihydro-1H-isoindole-5-carboxamide], for which the IC50 was 2 nM.

Regarding `CCOc1cc2c(c(F)c1OCC)C(=N)N(CC(=O)c1cc(N3C(=O)CCC3=O)cc(S(F)(F)(F)(F)F)c1)C2` [Example 18, 1-{3-[2-(5,6-Diethoxy-7-fluoro-1-imino-1,3-dihydroisoindol-2-yl)acetyl]-5-pentafluorosulfanylphenyl}pyrrolidine-2,5-dione], the IC50 worked out at 175 nM. Same read-out and setting: the value for `CCOc1cc2c(cc1C(=O)NC)C(=N)N(CC(=O)c1cc(NC(C)=O)cc(S(F)(F)(F)(F)F)c1)C2` [Example 8, N-Methyl-2-[2-(3-acetylamino-5-pentafluorosulfanylphenyl)-2-oxoethyl]-6-ethoxy-3-imino-2,3-dihydro-1H-isoindole-5-carboxamide] was 17 nM. Same read-out and setting: the value for `CCOc1cc2c(c(F)c1OCC)C(=N)N(CC(=O)c1cc(N(C)C(C)=O)cc(S(F)(F)(F)(F)F)c1)C2` [Example 12, N-[3-[2-(5,6-diethoxy-7-fluoro-1-imino-1,3-dihydroisoindol-2-yl)acetyl]-5-(pentafluorosulfanyl)phenyl]-N-methylacetamide] was 387 nM.

`CCOc1cc2c(c(F)c1OCC)C(=N)N(CC(=O)c1cc(OC)cc(S(F)(F)(F)(F)F)c1)C2` [Example 21, 2-(5,6-Diethoxy-7-fluoro-1-imino-1,3-dihydroisoindol-2-yl)-1-[3-methoxy-5-(pentafluorosulfanyl)phenyl]ethanone] returned an IC50 of 28 nM. On the same count and under the same terms, the value for `CCOc1cc2c(cc1C(=O)NC)C(=N)N(CC(=O)c1cc(N(S(C)(=O)=O)S(C)(=O)=O)cc(S(F)(F)(F)(F)F)c1)C2` [Example 10, N-Methyl-6-ethoxy-3-imino-2-{2-[3-dimethanesulfonylamino-5-(pentafluorosulfanyl)phenyl]-2-oxoethyl}-2,3-dihydro-1H-isoindole-5-carboxamide] was 718 nM; that for `CCOc1cc2c(c(F)c1OCC)C(=N)N(CC(=O)c1cc(N)c(S(F)(F)(F)(F)F)cc1C)C2` [Example 16, 1-[5-Amino-2-methyl-4-(pentafluorosulfanyl)phenyl]-2-(5,6-diethoxy-7-fluoro-1-imino-1,3-dihydroisoindol-2-yl)ethanone] was 10600 nM. The same measure, in the same setting: the value for `CCOc1cc2c(c(F)c1OCC)C(=N)N(CC(=O)c1ccc(S(F)(F)(F)(F)F)cc1N)C2` [Example 19, 1-[2-Amino-4-(pentafluorosulfanyl)phenyl]-2-(5,6-diethoxy-7-fluoro-1-imino-1,3-dihydroisoindol-2-yl)ethanone] was 98 nM; that for `CCOc1cc2c(cc1C(=O)NC)C(=N)N(CC(=O)c1cc(N(C)C)cc(S(F)(F)(F)(F)F)c1)C2` [Example 2, N-Methyl-2-[2-(3-dimethylamino-5-pentafluorosulfanylphenyl)-2-oxoethyl]-6-ethoxy-3-imino-2,3-dihydro-1H-isoindole-5-carboxamide] was 597 nM.

Values taken from US8466169B2, “SF5 derivatives as PAR1 inhibitors, production thereof, and use as medicaments” (Sanofi, priority 2008, dated 2013).
